# Experimental data from PubChem BioAssay AID328 (DTP/NCI, 2004).
# Toxic doses and inconclusive results are not listed.
# Tested on: BDF1 mice, P388 leukemia ip, median survival T/C
# Test: NCI In Vivo Anticancer Drug Screen. Data for tumor model P388 Leukemia (intraperitoneal) in B6D2F1 (BDF1) mice
# Conditions: endpoint: median survival time, higher = longer survival
# How it was run: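 Compound-treated tumour-bearing mice were compared with vehicle-treated controls. Survival was recorded, and the value is the treated-group measurement divided by the control-group measurement (T/C).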
# [1] = dose: 100.0 mg/kg/injection, schedule: Q01DX009 (ip), vehicle: saline with Tween-80
# [2] = dose: 200.0 mg/kg/injection, schedule: Q01DX009 (ip), vehicle: saline with Tween-80
# [3] = dose: 400.0 mg/kg/injection, schedule: Q01DX009 (ip), vehicle: saline with Tween-80
# [4] = dose: 100.0 mg/kg/injection, schedule: Q04DX003 (ip), vehicle: saline with Tween-80
# [5] = dose: 200.0 mg/kg/injection, schedule: Q04DX003 (ip), vehicle: saline with Tween-80
# [6] = dose: 400.0 mg/kg/injection, schedule: Q04DX003 (ip), vehicle: saline with Tween-80
# [7] = dose: 100.0 mg/kg/injection, schedule: Q01DX001 (ip), vehicle: saline with Tween-80
# [8] = dose: 200.0 mg/kg/injection, schedule: Q01DX001 (ip), vehicle: saline with Tween-80
structure (smiles),measurement,setting,value
CCOc1cccc(OCC)c1C,T/C,"dose: 75.0 mg/kg/injection, schedule: Q01DX009 (ip), vehicle: Klucel (hydroxypropylcellulose) (HPC)",100 % of control
same,T/C,"dose: 150.0 mg/kg/injection, schedule: Q01DX009 (ip), vehicle: Klucel (hydroxypropylcellulose) (HPC)",100 % of control
same,T/C,"dose: 300.0 mg/kg/injection, schedule: Q01DX009 (ip), vehicle: Klucel (hydroxypropylcellulose) (HPC)",100 % of control
Clc1ccc(-c2ncnc3c2Cc2ccccc2-3)cc1,T/C,[1],112 % of control
same,T/C,[2],116 % of control
same,T/C,[3],100 % of control
C[C@]12[C@@H]3CC(=O)C[C@@]1(CC[C@@H]1[C@@H]2CC[C@]2(C)OC(=O)CC[C@@H]12)SS3,T/C,[1],100 % of control
same,T/C,[4],104 % of control
same,T/C,[2],91 % of control
same,T/C,[5],90 % of control
same,T/C,[3],95 % of control
same,T/C,[6],90 % of control
O=S(=O)(/N=C1C=C/C(=N\S(=O)(=O)c2ccccc2)C(Sc2ccccc2)=C\1)c1ccccc1,T/C,"dose: 50.0 mg/kg/injection, schedule: Q01DX001 (ip), vehicle: saline with Tween-80",104 % of control
same,T/C,[7],90 % of control
same,T/C,[8],122 % of control
COc1ccc2cc1Oc1ccc(cc1)C[C@H]1c3cc(c(OC)cc3CCN1C)Oc1c(OC)c(OC)cc3c1[C@H](C2)N(C)CC3,T/C,"dose: 12.5 mg/kg/injection, schedule: Q04DX003 (ip), vehicle: saline",105 % of control
same,T/C,"dose: 25.0 mg/kg/injection, schedule: Q04DX003 (ip), vehicle: saline",90 % of control
same,T/C,"dose: 50.0 mg/kg/injection, schedule: Q04DX003 (ip), vehicle: saline",110 % of control
same,T/C,"dose: 100.0 mg/kg/injection, schedule: Q04DX003 (ip), vehicle: saline",110 % of control
Cc1ccc(C(=S)NC(=O)NS(C)(=O)=O)cc1,T/C,[7],106 % of control
same,T/C,[8],105 % of control
same,T/C,"dose: 400.0 mg/kg/injection, schedule: Q01DX001 (ip), vehicle: saline with Tween-80",99 % of control
CC(C)C(Br)C(=O)NC(Cc1ccccc1)C(=O)O (centres undefined),T/C,[4],109 % of control
same,T/C,[5],100 % of control
same,T/C,[6],95 % of control
O=C(CCCN1CCC(C(=O)c2ccc(Cl)cc2)CC1)c1ccc(F)cc1,T/C,"dose: 12.5 mg/kg/injection, schedule: Q01DX009 (ip), vehicle: Klucel (hydroxypropylcellulose) (HPC)",112 % of control
COc1ccc(-c2c3c(cc4cc5c(cc24)OCO5)C(=O)OC3)cc1OC,T/C,"dose: 0.25 mg/kg/injection, schedule: Q01DX009 (ip), vehicle: saline + alcohol",95 % of control
same,T/C,"dose: 0.5 mg/kg/injection, schedule: Q01DX009 (ip), vehicle: saline + alcohol",88 % of control
same,T/C,"dose: 1.0 mg/kg/injection, schedule: Q01DX009 (ip), vehicle: saline + alcohol",95 % of control
same,T/C,"dose: 1.5 mg/kg/injection, schedule: Q01DX009 (ip), vehicle: saline + alcohol",104 % of control
same,T/C,"dose: 2.0 mg/kg/injection, schedule: Q01DX009 (ip), vehicle: saline + alcohol",88 % of control
same,T/C,"dose: 3.0 mg/kg/injection, schedule: Q01DX009 (ip), vehicle: saline + alcohol",93 % of control
same,T/C,"dose: 4.0 mg/kg/injection, schedule: Q01DX009 (ip), vehicle: saline + alcohol",95 % of control
same,T/C,"dose: 6.0 mg/kg/injection, schedule: Q01DX009 (ip), vehicle: saline + alcohol",111 % of control
same,T/C,"dose: 8.0 mg/kg/injection, schedule: Q01DX009 (ip), vehicle: saline + alcohol",104 % of control
same,T/C,"dose: 12.0 mg/kg/injection, schedule: Q01DX009 (ip), vehicle: saline + alcohol",101 % of control
same,T/C,"dose: 24.0 mg/kg/injection, schedule: Q01DX009 (ip), vehicle: saline + alcohol",93 % of control
same,T/C,"dose: 25.0 mg/kg/injection, schedule: Q01DX009 (ip), vehicle: saline + alcohol",94 % of control
same,T/C,"dose: 50.0 mg/kg/injection, schedule: Q01DX009 (ip), vehicle: saline + alcohol",94 % of control
same,T/C,"dose: 100.0 mg/kg/injection, schedule: Q01DX009 (ip), vehicle: saline + alcohol",97 % of control
same,T/C,"dose: 200.0 mg/kg/injection, schedule: Q01DX009 (ip), vehicle: saline + alcohol",86 % of control
CN=C(N)c1ccc(N=C(N)c2ccc(N=C(N)c3ccc(N)cc3)cc2)cc1,T/C,"dose: 16.0 mg/kg/injection, schedule: Q01DX009 (ip), vehicle: saline",227 % of control
same,T/C,"dose: 25.0 mg/kg/injection, schedule: Q01DX009 (ip), vehicle: saline",245 % of control
same,T/C,"dose: 35.0 mg/kg/injection, schedule: Q01DX009 (ip), vehicle: saline",195 % of control
